# Biological target: glucosylceramide synthase (GCS) enzyme in Golgi preparations from human A375 malignant melanoma skin cells (Homo sapiens (Human), UniProt Q16739)
# Assay: UDP-Glo glucosylceramide synthase biochemical assay
# Settings: 1.5 μg crude golgi preparation; C6 ceramide and UDP-glucose at 2×Km; 20 h incubation at room temperature; luminescence
# Description: UDP-Glo™ Glucosylceramide Synthase Biochemical Assay
# A UDP-Glo™ glucosylceramide synthase biochemical assay was utilized to evaluate the effect of test compounds on the activity of endogenous levels of GCS enzyme contained within Golgi preparations isolated from human A375 malignant melanoma skin cells. The UDP-Glo™ glucosylceramide synthase assay uses UDP-Glucose as a nucleotide-glycosyl donor and ceramide as substrate acceptor molecules. In the reaction, glucosylceramide synthase (GCS) transfers glucose from UDP-Glucose to ceramide. Glucosylceramide and UDP are released as products.
# Using Promega's UDP-Glo™ Glycosyltransferase assay kit (Promega Corporation, Madison, WI, USA (Promega)), GCS activity was indirectly measured by detecting the amount of UDP produced. An aliquot of GCS enzyme (1.5 μg crude golgi preparation, total protein) and titrated test compound were aliquoted to each well and incubated for 30 minutes at room temperature. Substrate mixture was prepared by mixing C6 ceramide (Avanti Polar Lipids, Alabaster, AL USA (Avanti)) (micelles prepared at 0.6 mM in 0.6 mM DOPC) and UDP-glucose (20 μM; Promega), at concentrations equivalent to 2×Km, in assay buffer (25 mM HEPES (pH 7.5), 50 mM KCl, 5 mM MgCl2). An equivalent volume of substrate mixture was then added to each well. Following a 20 h incubation at room temperature to allow for GCS turnover of substrate, an equal volume of UDP detection reagent (Promega) was added to each well and incubated for an additional 75 minutes at room temperature to simultaneously convert the accumulated UDP product into ATP and generate light in a luciferase reaction. The generated light was detected using a luminometer. […] luminescence values (RLUs) were normalized to mean “min” and “max” effects, as determined on each plate. “Min” was defined as the mean of the values of the wells treated with vehicle (DMSO) and which represent 0% inhibition; “max” was defined as the mean of the values of the wells treated with a reference inhibitor and which represent the 100% effect. Values for % Emax and EC50 were determined by best-fitting the normalized data to a curve in Activity Base along a four-parameter logistic nonlinear regression (4PL) model (based on the Levenberg-Marquardt algorithm and defined by the equation below): […]
# where: n is 4PMin (bottom of the curve); m is 4PMax (top of the curve); i is IP (inflection point of curve); andp is slope. See Levenberg, K., “A Method for the Solution of Certain Problems in Least Squares”, Quart. Appl. Math. 2, (1944), pp 164-168 and Marquardt, D., “An Algorithm for Least Squares Estimation on Nonlinear Parameters”, SIAM J. Appl. Math. 11, (1963) pp 431-441.
# glucosylceramide synthase (GCS) enzyme in Golgi preparations from human A375 malignant melanoma skin cells, sequence (Q16739 whole entry): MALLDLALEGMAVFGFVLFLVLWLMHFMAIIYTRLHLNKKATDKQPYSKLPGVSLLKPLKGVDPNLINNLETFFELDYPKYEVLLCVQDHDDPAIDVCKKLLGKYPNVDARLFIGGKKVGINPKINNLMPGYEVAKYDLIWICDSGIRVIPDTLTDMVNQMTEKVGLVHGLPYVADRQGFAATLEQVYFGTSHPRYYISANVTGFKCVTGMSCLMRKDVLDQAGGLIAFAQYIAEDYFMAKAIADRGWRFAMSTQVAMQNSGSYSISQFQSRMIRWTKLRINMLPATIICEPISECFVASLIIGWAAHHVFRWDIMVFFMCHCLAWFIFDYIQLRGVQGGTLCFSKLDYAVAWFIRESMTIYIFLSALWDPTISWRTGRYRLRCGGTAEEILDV
row,Compound,EC50 [nM]
1,"O=C(N1CCN2CCC1CC2)n1nc(C2=CCC(F)(F)CC2)c2c1COCC2 [Compound 35, (1,4-diazabicyclo[3.2.2]nonan-4-yl)(3-(4,4-difluorocyclohex-1-en-1-yl)-4,7-dihydropyrano[3,4-c]pyrazol-1(5H)-yl)methanone]",38.5
2,"O=C(N1CCN2CCC1CC2)n1nc(C2=CCCC2)c2c1CCC2 [Compound 37, [3-(cyclopenten-1-yl)-5,6-dihydro-4H-cyclopenta[c]pyrazol-1-yl]-(1,4-diazabicyclo[3.2.2]nonan-4-yl)methanone]",3.6
3,"COc1ccc(F)c(-c2nn(C(=O)N3CCN4CCC3CC4)c3c2CCC3)c1 [Compound 44, 1,4-diazabicyclo[3.2.2]nonan-4-yl-[3-(2-fluoro-5-methoxy-phenyl)-5,6-dihydro-4H-cyclopenta[c]pyrazol-1-yl]methanone]",1.7
4,"O=C(N1CCN2CCC1CC2)n1nc(-c2ccc(F)c(Cl)c2)c2c1COC2 [Compound 50, (1,4-diazabicyclo[3.2.2]nonan-4-yl)(3-(3-chloro-4-fluorophenyl)-4,6-dihydro-1H-furo[3,4-c]pyrazol-1-yl)methanone]",14.9
5,"O=C(N1CCN2CCC1CC2)n1nc(-c2ccc(F)cc2)c2c1CC(O)C2 (stereo not drawn) [Compound 21, R and S-(1,4-diazabicyclo[3.2.2]nonan-4-yl)(3-(4-fluorophenyl)-5-hydroxy-5,6-dihydrocyclopenta[c]pyrazol-1(4H)-yl)methanone]",19.3
6,"COc1ncc(-c2nn(C(=O)N3CCN4CCC3CC4)c3c2CCOC3)cc1Cl [Compound 32, (1,4-diazabicyclo[3.2.2]nonan-4-yl)(3-(5-chloro-6-methoxypyridin-3-yl)-4,7-dihydropyrano[3,4-c]pyrazol-1(5H)-yl)methanone]",7.6
7,"CC1(C)COc2c(-c3ccc(F)cc3)nn(C(=O)N3CCN4CCC3CC4)c21 [Compound 17, (1,4-diazabicyclo[3.2.2]nonan-4-yl)(3-(4-fluorophenyl)-6,6-dimethyl-5,6-dihydro-1H-furo[3,2-c]pyrazol-1-yl)methanone]",10.1
8,"O=C(N1CCN2CCC1CC2)n1nc(-n2cc(Cl)cn2)c2c1CCOC2 [Compound 60, (1,4-diazabicyclo[3.2.2]nonan-4-yl)(3-(4-chloro-1H-pyrazol-1-yl)-6,7-dihydropyrano[4,3-c]pyrazol-1(4H)-yl)methanone]",4.8
9,"Cn1nc(C(F)(F)F)cc1-c1nn(C(=O)N2CCN3CCC2CC3)c2c1CCC2 [Compound 33, 1,4-diazabicyclo[3.2.2]nonan-4-yl-[3-[2-methyl-5-(trifluoromethyl)pyrazol-3-yl]-5,6-dihydro-4H-cyclopenta[c]pyrazol-1-yl]methanone]",5.9
10,"O=C(N1CCN2CCC1CC2)n1nc(-c2cc(Cl)c(F)cn2)c2c1COCC2 [Compound 49, (1,4-diazabicyclo[3.2.2]nonan-4-yl)(3-(4-chloro-5-fluoropyridin-2-yl)-4,7-dihydropyrano[3,4-c]pyrazol-1(5H)-yl)methanone]",8.3
11,"O=C(N1CCN2CCC1CC2)n1nc(-c2ccc(F)c(Cl)c2)c2c1COCC2 [Compound 7, [3-(3-chloro-4-fluoro-phenyl)-5,7-dihydro-4H-pyrano[3,4-c]pyrazol-1-yl]-(1,4-diazabicyclo[3.2.2]nonan-4-yl)methanone]",1
12,"O=C(N1CCN2CCC1CC2)n1nc(N2CCC(F)(F)CC2)c2c1CCC2 [Compound 51, (1,4-diazabicyclo[3.2.2]nonan-4-yl)(3-(4,4-difluoropiperidin-1-yl)-5,6-dihydrocyclopenta[c]pyrazol-1(4H)-yl)methanone]",7
13,"O=C(N1CCN2CCC1CC2)n1nc(-n2cc(Cl)cn2)c2c1CCC2 [Compound 56, (1,4-diazabicyclo[3.2.2]nonan-4-yl)(3-(4-chloro-1H-pyrazol-1-yl)-5,6-dihydrocyclopenta[c]pyrazol-1(4H)-yl)methanone]",3
